This is an account of results in patent publication US7608630B2, “Marasmius androsaceus L.es Fr extract, piperidone derivative, and their use for the preparation of hypertensives” (Hainan Yangpu New Special Pharmaceutical Co., Ltd., priority 2004, dated 2009).

Where “and” joins values, the source holds several entries; their conditions need not be identical. Equal values may be shown once.

For assay [1], the system named is blood pressure of SHR rat. Description: Reduction of blood pressure of anesthetized SHR rat. Type of assay: in vivo, spontaneously hypertensive rat (SHR). The settings on record: SHR rat; for Diastolic pressure / Systolic pressure: 10 mg/kg intravenous; for reduction of systolic pressure and diastolic pressure: dosage range 10-200 mg/kg, intravenous. Here is the method: (§1) A spontaneously hypertensive rat (SHR) was anesthetized with 40 mg/ml pentobarbital, and fixed by its back on an experimental stand. The skin at its neck was cut open after removing hair, and thereafter the right common carotid artery was separated with its proximal end being clamped by a artery clamp and its axifugal end being ligated by a thread. A V-shape cut was made with scissors at the axifugal end, into which an arterial cannula filled with heparin physiological saline was inserted. The arterial cannula was connected with a blood pressure transducer, and then the blood pressure transducer was connected to a computer-controlled three-way physiological-pharmacological recorder. The right femoral vein of the rat was separated and intubated for the injection of a drug. When the blood pressure became stable (i.e., the blood pressure contraction curve became straight), the rat was administered by intravenous route.

Assay [2] relates to ileum smooth muscle of guinea pig. Description: Effects on ileum smooth muscle of guinea pig (automatic rhythmic contraction of isolated ileum section). Here is the method: The section was clamped at its both ends with frog heart clips, and placed in a perfusion tank with the lower end being fixed at the bottom of the tank and the top end being connected by a thread to a tensile transducer of a two-way electrophysiolograph, so that the automatic rhythmic contraction of the ileum section was recorded. The Tai's nutrient solution in the tank was kept at a temperature of 35° C., into which pure […] was bubbled. […] The normal contraction curve of the ileum section was firstly recorded using isoprenaline as a positive control.

Assay [3] deals with aorta smooth muscle of rabbit. Description: Effects on aorta of rabbit (contraction of isolated aorta section caused by adrenalin). The arrangement: species or system New Zealand rabbit. How it is done: A New Zealand rabbit was beheaded and unconscious. After thoracotomy, its thoracic aorta was quickly taken out, and quickly placed in and flushed with a pre-cooled LOCK's solution (which comprised of 1000 ml water, 9 g NaCl, 0.35 g KCl, 0.35 g MgSO4.7H2O, 0.16 g KH2PO4, and 1 g NaHCO3) to remove bloodiness. The connective tissue outside the blood vessel was carefully cut off, and an aorta section of 2-3 mm wide at an angle of 45° relative to the vessel was taken for use in the following test.
The aorta section of 2 cm long was clamped at its both ends with frog heart clips, and put in a thermostatic perfusion tank of 38° C. with the lower end being fixed at the bottom of the tank and the top end being connected by a thread to a tensile transducer of a two-way electrophysiolograph. Oxygen was bubbled to the solution in the perfusion tank, and the contraction force of the aorta section was recorded after balancing it in the solution for 80 min. During which, the LOCK's solution was changed once per 20 min. After adding 1.2×10^−6 mg/ml adrenalin to the solution, the contraction curve of the aorta section was recorded.

Another assay deals with blood pressure of cats. Description: Reduction of blood pressure of cat. Type of assay: in vivo. The settings on record: cats, 10 mg/kg o.s; for Diastolic pressure, Animal 1-4 individually / Systolic pressure, Animal 1-4 individually / Systolic pressure, Animal 3-4 individually: 10 mg/kg. How it is done:
as §1
Five cats of 2.5-3.2 kg were administered orally and intravenously respectively according to the method in Example 8, and then their systolic pressure and diastolic pressure were determined using normal cats non-administered as a control group.

Setting [4] is: 10 min after administration (Table 9).
The mark [5] stands for this setting: 20 min after administration (Table 9).
Setting [6] is: 30 min after administration (Table 9).
Setting [7] is: 40 min after administration (Table 9).
[8] abbreviates: 50 min after administration (Table 9).
Where [9] appears, read: 60 min after administration (Table 9).
[10] abbreviates: 90 min after administration (Table 9).
The mark [11] stands for this setting: 120 min after administration (Table 9).
Where [12] appears, read: 150 min after administration (Table 9).
The mark [13] stands for this setting: 180 min after administration (Table 9).
[14] abbreviates: before administration (Table 9).

In the case of `CC1(C)CNCC(C)(C)C1=O.Cl` [3,3,5,5-tetramethyl-4-piperidone hydrochloride], the Diastolic pressure in assay [1] (5 min after administration) is given as 109 ± 13 mm/Hg; in assay [1] (60 min after administration), 89 ± 12 mm/Hg; in assay [1] (120 min after administration), 80 ± 23 mm/Hg; in assay [1] (240 min after administration) it was 112 ± 16 mm/Hg; in assay [1] (before administration), 119 ± 15 mm/Hg. Besides, the Systolic pressure in assay [1] (5 min after administration) turned out to be 139 ± 19 mm/Hg; in assay [1] (60 min after administration) it was 123 ± 11 mm/Hg; in assay [1] (120 min after administration) it was 129 ± 17 mm/Hg; in assay [1] (240 min after administration), 169 ± 14 mm/Hg; in assay [1] (before administration) it was 170 ± 9.3 mm/Hg. The “reduction of systolic pressure and diastolic pressure” value in assay [1] is “could obviously reduce the systolic pressure and diastolic pressure of SHR rat”.
With `CC(C)NCC(O)c1ccc(O)c(O)c1` (stereo not drawn) [Isoprenaline, reference compound], in assay [2] (concentration 5 × 10^−5 mg/ml), the “Relaxation Time” value stood at 0.3 h and the “Time of taking effect” value is reported as 16 min. Further, in assay [2] (concentration 5×10^−5 mg/ml, control), the “time after flushing at which the inhibited contraction is resumed” value was 20 min. The “Time of taking effect” value in assay [3] (concentration 1.2 × 10^−6 mg/ml) is reported as 16 min. This compound had a Contraction force in assay [3] (concentration 1.2 × 10^−6 mg/ml, relative to original adrenalin contraction) of 1.
For `CC1(C)CNCC(C)(C)C1O` [Compound of formula Ib, 3,3,5,5-tetramethyl-4-piperidanol], the “Relaxation Time” value in assay [2] (concentration 1 × 10^−4 mg/ml) came out at 5 h. Besides, the “Time of taking effect” value in assay [2] (concentration 1 × 10^−4 mg/ml) was determined as 3 min. In addition, in assay [2] (different concentrations), the “inhibition of the automatic rhythmic contraction of the ileum section” value was “could inhibit the automatic rhythmic contraction of the ileum section”. For the same compound, the Systolic pressure was found to be 140 ± 19 mm/Hg in assay [1] (5 min after administration); 121 ± 15 mm/Hg in assay [1] (60 min after administration); 126 ± 16 mm/Hg in assay [1] (120 min after administration); 162 ± 11 mm/Hg in assay [1] (240 min after administration); 178 ± 13 mm/Hg in assay [1] (before administration). Moreover, the Diastolic pressure is reported as 88 ± 10 mm/Hg in assay [1] (60 min after administration), 89 ± 8.9 mm/Hg in assay [1] (120 min after administration), 107 ± 9.2 mm/Hg in assay [1] (240 min after administration) and 125 ± 17 mm/Hg in assay [1] (before administration). For the same compound, the “reduction of systolic pressure and diastolic pressure” value in assay [1] is “could obviously reduce the systolic pressure and diastolic pressure of SHR rat”. Besides, the “Average Diastolic pressure” value in the assay with blood pressure of cats (setting [4]) is reported as 106.75 mmHg; with blood pressure of cats (setting [5]), 104.25 mmHg; in the assay on blood pressure of cats (setting [6]), 104.75 mmHg; with blood pressure of cats (setting [7]), 102.25 mmHg; in the assay with blood pressure of cats (setting [8]) it was 103 mmHg; in the assay on blood pressure of cats (setting [9]) it was 109 mmHg. Besides, the “Average Diastolic pressure” value with blood pressure of cats (setting [10]) came out at 109.25 mmHg; in the assay with blood pressure of cats (setting [11]), 116.75 mmHg; in the assay with blood pressure of cats (setting [12]), 116.75 mmHg; with blood pressure of cats (setting [13]), 118.5 mmHg; in the assay with blood pressure of cats (setting [14]) it was 140 mmHg. In addition, the “Average Systolic pressure” value in the assay with blood pressure of cats (setting [4]) is listed as 141.75 mmHg; in the assay on blood pressure of cats (setting [5]) it was 140 mmHg; in the assay on blood pressure of cats (setting [6]), 140.5 mmHg; in the assay on blood pressure of cats (setting [7]) it was 139 mmHg; in the assay with blood pressure of cats (setting [8]) it was 136.5 mmHg; with blood pressure of cats (setting [9]), 138 mmHg. Moreover, the “Average Systolic pressure” value amounted to 141.75 mmHg in the assay on blood pressure of cats (setting [10]); 151.5 mmHg with blood pressure of cats (setting [11]); 155.25 mmHg in the assay on blood pressure of cats (setting [12]); 158.5 mmHg with blood pressure of cats (setting [13]); 171 mmHg in the assay with blood pressure of cats (210 min after administration (Table 9; two animals)); 178.5 mmHg in the assay on blood pressure of cats (240 min after administration (Table 9; two animals)). Also, in the assay on blood pressure of cats (setting [14]), the “Average Systolic pressure” value is recorded as 195.25 mmHg. Also, the “Diastolic pressure, Animal 1-4 individually” value in the assay with blood pressure of cats (setting [4]) was 119 mmHg and 105 mmHg and 100 mmHg and 103 mmHg; in the assay with blood pressure of cats (setting [5]) it was 135 mmHg and 89 mmHg (2×) and 104 mmHg; in the assay with blood pressure of cats (setting [6]), 130 mmHg and 90 mmHg (2×) and 109 mmHg; in the assay with blood pressure of cats (setting [7]), 126 mmHg and 91 mmHg and 102 mmHg and 90 mmHg; with blood pressure of cats (setting [8]) it was 126 mmHg and 96 mmHg and 103 mmHg and 87 mmHg; with blood pressure of cats (setting [9]), 123 mmHg and 97 mmHg and 102 mmHg and 114 mmHg. Besides, the “Diastolic pressure, Animal 1-4 individually” value in the assay with blood pressure of cats (setting [10]) is 125 mmHg and 95 mmHg and 110 mmHg and 107 mmHg; with blood pressure of cats (setting [11]) it was 131 mmHg and 94 mmHg and 115 mmHg and 127 mmHg; in the assay with blood pressure of cats (setting [12]) it was 132 mmHg and 98 mmHg and 117 mmHg and 120 mmHg; in the assay on blood pressure of cats (setting [13]) it was 133 mmHg and 97 mmHg and 113 mmHg and 131 mmHg; in the assay with blood pressure of cats (setting [14]) it was 134 mmHg and 156 mmHg and 116 mmHg and 154 mmHg. Moreover, the “Systolic pressure, Animal 1-4 individually” value in the assay on blood pressure of cats (setting [4]) is 136 mmHg and 139 mmHg and 145 mmHg and 147 mmHg; in the assay with blood pressure of cats (setting [5]), 146 mmHg and 125 mmHg and 153 mmHg and 136 mmHg; with blood pressure of cats (setting [6]), 146 mmHg and 126 mmHg and 154 mmHg and 136 mmHg; in the assay with blood pressure of cats (setting [7]), 140 mmHg and 126 mmHg and 154 mmHg and 136 mmHg; with blood pressure of cats (setting [8]), 136 mmHg and 130 mmHg (2×) and 150 mmHg; in the assay on blood pressure of cats (setting [9]), 140 mmHg and 122 mmHg and 152 mmHg and 138 mmHg. The “Systolic pressure, Animal 1-4 individually” value is 135 mmHg and 130 mmHg and 156 mmHg and 146 mmHg in the assay on blood pressure of cats (setting [10]); 146 mmHg and 131 mmHg and 165 mmHg and 164 mmHg with blood pressure of cats (setting [11]); 145 mmHg and 139 mmHg and 166 mmHg and 171 mmHg in the assay with blood pressure of cats (setting [12]); 152 mmHg and 142 mmHg and 160 mmHg and 180 mmHg in the assay with blood pressure of cats (setting [13]); 150 mmHg and 209 mmHg and 185 mmHg and 237 mmHg in the assay on blood pressure of cats (setting [14]). The “Systolic pressure, Animal 3-4 individually” value in the assay with blood pressure of cats (210 min after administration (Table 9)) was 156 mmHg and 186 mmHg; in the assay on blood pressure of cats (240 min after administration (Table 9)), 155 mmHg and 202 mmHg.
On to `CCN1CC(C)(C)C(=O)C(C)(C)C1` [Compound of formula Ia, 1-ethyl-3,3,5,5-tetramethyl-4-piperidone], for which the “Time of taking effect” value in assay [3] (concentration 1 × 10^−4 mg/ml) came out at 3 min. Also, in assay [3] (concentration 1 × 10^−4 mg/ml, 10 min, then adrenalin 1.2×10^−6 mg/ml, relative to original value), the Contraction force came to 0.3. Also, the “reduction of the contraction of aorta section caused by adrenalin” value in assay [3] (concentration range 5×10^−3-1×10^−4 mg/ml) is on record as “could obviously reduce the contraction of aorta section caused by adrenalin”. Moreover, the “contraction force resumed by adrenalin, fraction of the original value” in assay [3] (sample 10 min, then adrenalin 1.2×10^−6 mg/ml, stated for the three samples together) is recorded as “½-⅓”.
